Data reported in PubChem BioAssay (NCI).
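Method: 48-hour compound exposure of cells in 96-well plates, five concentrations, linear interpolation of endpoints. Abbreviation: GI50, concentration required for 50% inhibition of growth. At the TGI there is no net growth.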

Key:
Assay in all cases: growth of human tumour cells (NCI), 48 h
[1] = test system: U251 CNS
[2] = test system: RPMI-8226 leukemia
[3] = test system: SN12C renal
[4] = test system: IGROV1 ovarian
[5] = test system: COLO 205 colon
[6] = test system: M14 melanoma
[7] = test system: K-562 leukemia
[8] = test system: CAKI-1 renal

Compound | GI50 [1] | TGI [1] | GI50 [2] | TGI [2] | GI50 [3] | TGI [3] | GI50 [4] | TGI [4] | GI50 [5] | TGI [5] | GI50 [6] | TGI [6] | GI50 [7] | TGI [7] | GI50 [8] | TGI [8]
CC(C)N(C[C@H]1O[C@@H](n2cnc3c(N)ncnc32)[C@H](O)[C@@H]1O)C1CC(CCc2nc3ccc(C(C)(C)C)cc3[nH]2)C1 (stereo partly specified) | > 100 µM | > 100 µM | 46 µM | > 100 µM | > 100 µM | > 100 µM | > 72.4 µM | > 100 µM | 38.5 µM | > 100 µM | > 72.2 µM | > 100 µM | 33.4 µM | > 75.3 µM | > 100 µM | > 100 µM
CCCCCc1c(C)[nH]c(/C=c2\[nH]/c(=C3/C=c4ccccc4=N3)cc2OC)c1C | 0.067 µM | 0.627 µM | 0.0614 µM | 0.682 µM | 0.0926 µM | 1.88 µM | 0.265 µM | 5.25 µM | 0.0568 µM | 0.494 µM | 0.0295 µM | 0.375 µM |  |  | 0.0425 µM | 1.56 µM
COc1ccc(C2C3=C(COC3=O)N(CCO)c3cc4c(cc32)OCCO4)cc1OC (stereo unspecified) | 2.89 µM | > 50 µM | 1.91 µM | > 12.6 µM | > 15.7 µM | > 50 µM | 1.91 µM | 14.9 µM | 1.34 µM | 3.62 µM | 1.94 µM | > 30.7 µM | 1.38 µM | > 50 µM | 4.03 µM | > 50 µM
Oc1[nH]c2ccc(Cl)cc2c1/C=c1/ccc2c(c1)N=C(c1cc(F)cc(F)c1)N=2 |  |  | 3.31 µM | > 100 µM | 5.41 µM | > 100 µM | 6.21 µM | > 100 µM | 4.28 µM | > 100 µM | 2.18 µM | 5.66 µM | 3.12 µM | > 100 µM | 5.1 µM | > 100 µM
O=C(CC1(O)C(=O)Nc2c(Cl)ccc(Cl)c21)c1ccc(C2CC2)cc1 (stereo unspecified) | 1.13 µM | 14.6 µM | 0.87 µM | 16.5 µM | 2.66 µM | 20.4 µM | 1.5 µM | 18.2 µM | 0.801 µM | 3.06 µM | 0.422 µM | 3.25 µM | 0.152 µM |  | 0.449 µM | 17.3 µM
CN(C)CCOc1nc2ccccc2c2c1-c1ccc(Cl)cc1C2=O | 0.38 µM | 1.59 µM | 0.617 µM | 2.35 µM | 0.389 µM | 2.36 µM | 0.444 µM | 1.73 µM | 0.443 µM | 1.72 µM | 1.12 µM | 2.72 µM |  |  | 0.499 µM | 5.18 µM
COc1cc2c3c(c1O)C1(C=CC(=O)C=C1)CC3N(C)CC2 (stereo unspecified) |  | 15.4 µM |  | 83.7 µM |  | 30.2 µM |  | 25.4 µM |  | 18.2 µM |  | 24.5 µM |  | > 100 µM |  | 35.5 µM
CCNCCNc1cc(-c2cccc(C(F)(F)F)c2)c(C#N)c2nc3ccccc3n12 | 1.67 µM | 3.08 µM |  |  | 1.74 µM | 3.37 µM | 1.72 µM | 3.49 µM | 0.557 µM | 1.99 µM | 1.71 µM | 3.25 µM |  |  | 1.54 µM | 3 µM
CN1CCN(c2ccc3nc4c(nc3c2C(F)(F)F)C(=O)c2ncccc2C4=O)CC1 | 1.38 µM | 4.04 µM | 2.37 µM | 7.59 µM | 1.44 µM | 2.91 µM | 1.41 µM | 3.07 µM | 1.45 µM | 3.29 µM | 1.32 µM | 2.86 µM | 1.43 µM | 7.75 µM | 1.2 µM | 2.75 µM
O=C(NO)c1cnc(N2CCN(S(=O)(=O)c3ccc4ccccc4c3)CC2)nc1 | 0.0654 µM | 0.298 µM | 0.0208 µM | 17.6 µM | 0.198 µM | 13.2 µM | 0.162 µM | 0.78 µM | 0.0564 µM | 0.294 µM | 0.0468 µM | 5.75 µM | 0.0363 µM | > 40.9 µM | 0.114 µM | 0.328 µM
O=[N+]([O-])c1ccc(-c2ccccc2)c([As](=O)(O)O)c1 | 3.08 µM | 23.9 µM | 15.2 µM | 62.9 µM | 12.7 µM | > 100 µM | 8.35 µM | 27.8 µM | 12.8 µM | 27.4 µM | 26.6 µM | > 100 µM | 4.89 µM | > 100 µM | 13.2 µM | 98.1 µM
N#CC(C#N)=Cc1ccc(-c2ccc(-c3nc4ccccc4o3)cc2)o1 | 21.7 µM | 52.5 µM |  |  |  | 16.5 µM | 65.8 µM | > 100 µM | 40 µM | > 100 µM | 77.4 µM | > 100 µM | 19.3 µM | > 100 µM | 40 µM | > 100 µM
CCN(CC)c1ccc2nc3c4ccccc4c(=NC(=O)c4ccccc4-c4c5ccc(N(CC)CC)cc5[o+]c5cc(N(CC)CC)ccc45)cc-3oc2c1 | 2.33 µM | 8.83 µM | 0.722 µM | 4.2 µM | 2.13 µM | 6.14 µM | 2.41 µM | 7.49 µM | 1.59 µM | 3.83 µM | 2.47 µM |  |  | > 100 µM | 4.95 µM | 18.9 µM
O=C1c2cccc3cc([N+](=O)[O-])cc(c23)C(=O)N1O |  | > 100 µM |  | > 100 µM |  | > 100 µM |  | > 100 µM |  | > 100 µM |  | > 100 µM |  | > 100 µM |  | > 100 µM
CC1(C)CC2CC(C)(CN2c2ncnc3ccc(Br)cc23)C1 (stereo unspecified) | 13.3 µM | 26.1 µM | 2.58 µM | 13.5 µM | 10.3 µM | 21.9 µM | 10.9 µM | 22.8 µM | 15.4 µM | 29.8 µM | 11 µM | 22.9 µM | 1.62 µM | 6.79 µM | 10.2 µM | 22 µM
NC(=O)NC(=O)C1CCCCC1C(=O)O (stereo unspecified) |  | > 100 µM |  | > 100 µM |  | > 100 µM |  | > 100 µM |  | > 100 µM |  | > 100 µM |  | > 100 µM |  | > 100 µM
